Experimental data published in patent publication US20200216416A1, “QUINOLINE COMPOUNDS AS INHIBITORS OF TAM AND MET KINASES” (Array BioPharma Inc., priority 2019, published 2020).
Blank lines part the entries; values can stand above or below the compound they belong to.

What was measured:
human MET kinase Y1230S = target: T1, human MET kinase Y1230S (Homo sapiens, UniProt P08581, Y1230S); assay: c-Met Enzyme Assay, Y1230S mutant; assay type: binding; settings: averaged IC50; Y1230S 8 nM; 60-minute incubation at 22° C.; read-out: Y1230 S IC50
T1 construct: GST-tagged recombinant human MET kinase domain; purchased Signal Chem
T1 sequence (P08581 1078-1345 Y1230S): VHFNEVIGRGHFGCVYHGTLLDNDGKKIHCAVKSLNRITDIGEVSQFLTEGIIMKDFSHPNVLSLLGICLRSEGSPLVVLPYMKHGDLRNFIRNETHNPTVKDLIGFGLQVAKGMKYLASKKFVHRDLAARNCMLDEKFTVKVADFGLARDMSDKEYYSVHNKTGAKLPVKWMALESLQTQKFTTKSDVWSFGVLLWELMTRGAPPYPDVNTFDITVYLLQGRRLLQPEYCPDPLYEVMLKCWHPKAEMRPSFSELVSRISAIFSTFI
Protocol: (§1) The affinity of compound binding to wild type and mutant human MET kinases was measured using Invitrogen's LanthaScreen™ Eu Kinase Binding technology. Briefly, GST-tagged recombinant human MET kinase domain from Signal Chem (see Table 8 below for concentration in assay) was incubated with 50 nM Alexa-Fluor® Tracer 236 (Invitrogen Cat No. PR9078A) and 2 nM Europium-anti-GST (Invitrogen Cat. No. A15116) along with test compound in a buffer consisting of 25 mM HEPES, pH 7.4, 10 mM MgCl2, 0.01% Triton X-100, 1mM DTT, and 2% DMSO. Compounds were typically prepared in a three-fold serial dilution in DMSO and added to the assay to give the appropriate final concentration. After a 60-minute incubation at 22° C., the reaction was measured using a PerkinElmer EnVision multimode plate reader via TR-FRET dual wavelength detection, and the percent of control (POC) calculated using a ratiometric emission factor. […] The POC values were fit to a 4 parameter logistic curve and the IC50 value is point where the curve crosses 50 POC.

[1] = target: T2, GST-tagged recombinant human TYRO3 kinase domain (Homo sapiens, UniProt Q06418); assay: TYRO3 Enzyme Assay (LanthaScreen Eu Kinase Binding); settings: averaged IC50; TYRO3 5 nM; 60-minute incubation at 22° C.; TR-FRET
T2 construct: GST-tagged recombinant human TYRO3 kinase domain; purchased Carna PR7480A
T2 sequence (Q06418 518-790 limits assumed): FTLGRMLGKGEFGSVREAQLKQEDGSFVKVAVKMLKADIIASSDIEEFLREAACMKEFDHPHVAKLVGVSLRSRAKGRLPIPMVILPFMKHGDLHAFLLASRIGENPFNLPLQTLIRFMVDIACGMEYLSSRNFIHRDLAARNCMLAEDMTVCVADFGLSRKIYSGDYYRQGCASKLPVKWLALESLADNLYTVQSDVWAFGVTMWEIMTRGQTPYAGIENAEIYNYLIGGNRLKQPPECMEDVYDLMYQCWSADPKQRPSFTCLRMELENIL
Protocol: Compounds disclosed herein were screened for their ability to inhibit TYRO3 kinase using Invitrogen's LanthaScreenTM Eu Kinase Binding technology. GST-tagged recombinant human TYRO3 kinase domain from Carna (5 nM; Cat. No. P[…]) was incubated with 20 nM Alexa-Fluor® Tracer 236 (P[…]) and 2 nM Europium-anti-GST (Cat. No. A15116) along with test compound in a buffer consisting of 25 mM HEPES, pH 7.4, 10 mM MgCl2, 0.01% Triton X-100, and 2% DMSO. Compounds are typically prepared in a threefold serial dilution in DMSO and added to the assay to give the appropriate final concentration. After a 60-minute incubation at 22° C., the reaction was measured using a PerkinElmer EnVision multimode plate reader via TR-FRET dual wavelength detection, and the percent of control (POC) calculated using a ratiometric emission factor. […] The POC values were fit to a 4 parameter logistic curve and the IC50 value is point where the curve crosses 50 POC.

[2] = target: T3, human MET kinase del Ex14 (Homo sapiens, UniProt P08581, DEL963-1009); assay: c-Met Enzyme Assay, del Ex14 mutant; assay type: binding; settings: averaged IC50; del Ex14 5 nM; 60-minute incubation at 22° C.; read-out: Del14 IC50
T3 construct: GST-tagged recombinant human MET kinase domain; purchased Signal Chem
T3 sequence (P08581 with tags, fused parts or gaps DEL963-1009 limits assumed): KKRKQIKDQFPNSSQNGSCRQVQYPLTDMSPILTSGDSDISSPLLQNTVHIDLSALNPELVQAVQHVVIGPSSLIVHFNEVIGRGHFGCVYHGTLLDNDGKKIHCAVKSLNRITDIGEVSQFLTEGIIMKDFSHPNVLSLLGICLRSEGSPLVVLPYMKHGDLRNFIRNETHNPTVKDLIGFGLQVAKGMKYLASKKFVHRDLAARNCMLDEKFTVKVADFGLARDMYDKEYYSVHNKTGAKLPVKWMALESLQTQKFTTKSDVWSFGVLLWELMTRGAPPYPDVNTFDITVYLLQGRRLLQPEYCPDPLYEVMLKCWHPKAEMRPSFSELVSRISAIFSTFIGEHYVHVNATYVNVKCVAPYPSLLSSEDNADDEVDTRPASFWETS
Protocol: as §1

human MET kinase D1228H = target: T4, human MET kinase D1228H (Homo sapiens, UniProt P08581, D1228H); assay: c-Met Enzyme Assay, D1228H mutant; assay type: binding; settings: averaged IC50; D1228H 2 nM; 60-minute incubation at 22° C.; read-out: D1228 H IC50
T4 construct: GST-tagged recombinant human MET kinase domain; purchased Signal Chem
T4 sequence (P08581 1078-1345 D1228H): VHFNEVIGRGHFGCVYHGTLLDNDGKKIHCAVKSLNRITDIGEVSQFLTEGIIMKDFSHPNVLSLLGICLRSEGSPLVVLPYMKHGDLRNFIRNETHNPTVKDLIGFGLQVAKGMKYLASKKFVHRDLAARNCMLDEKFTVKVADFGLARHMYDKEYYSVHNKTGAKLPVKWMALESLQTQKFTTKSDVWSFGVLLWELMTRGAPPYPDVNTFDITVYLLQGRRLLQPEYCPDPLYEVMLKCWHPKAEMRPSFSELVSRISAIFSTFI
Protocol: as §1

human MET kinase Y1230H = target: T5, human MET kinase Y1230H (Homo sapiens, UniProt P08581, Y1230H); assay: c-Met Enzyme Assay, Y1230H mutant; assay type: binding; settings: averaged IC50; Y1230H 5 nM; 60-minute incubation at 22° C.; read-out: Y1230 H IC50
T5 construct: GST-tagged recombinant human MET kinase domain; purchased Signal Chem
T5 sequence (P08581 1078-1345 Y1230H): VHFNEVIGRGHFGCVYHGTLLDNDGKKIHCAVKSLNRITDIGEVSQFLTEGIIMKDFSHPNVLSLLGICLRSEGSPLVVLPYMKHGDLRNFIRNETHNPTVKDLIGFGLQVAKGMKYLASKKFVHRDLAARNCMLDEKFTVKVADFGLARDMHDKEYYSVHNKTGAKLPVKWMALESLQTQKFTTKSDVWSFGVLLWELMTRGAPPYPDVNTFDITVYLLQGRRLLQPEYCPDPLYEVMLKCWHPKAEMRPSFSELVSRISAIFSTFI
Protocol: as §1

[3] = target: T6, His-tagged recombinant human MER cytoplasmic domain (Homo sapiens, UniProt Q12866); assay: MER Enzyme Assay (LanthaScreen Eu Kinase Binding); settings: averaged IC50; MER 5 nM; 60-minute incubation at 22° C.; TR-FRET
T6 construct: His-tagged recombinant human MER cytoplasmic domain
T6 sequence (Q12866 527-999 limits assumed): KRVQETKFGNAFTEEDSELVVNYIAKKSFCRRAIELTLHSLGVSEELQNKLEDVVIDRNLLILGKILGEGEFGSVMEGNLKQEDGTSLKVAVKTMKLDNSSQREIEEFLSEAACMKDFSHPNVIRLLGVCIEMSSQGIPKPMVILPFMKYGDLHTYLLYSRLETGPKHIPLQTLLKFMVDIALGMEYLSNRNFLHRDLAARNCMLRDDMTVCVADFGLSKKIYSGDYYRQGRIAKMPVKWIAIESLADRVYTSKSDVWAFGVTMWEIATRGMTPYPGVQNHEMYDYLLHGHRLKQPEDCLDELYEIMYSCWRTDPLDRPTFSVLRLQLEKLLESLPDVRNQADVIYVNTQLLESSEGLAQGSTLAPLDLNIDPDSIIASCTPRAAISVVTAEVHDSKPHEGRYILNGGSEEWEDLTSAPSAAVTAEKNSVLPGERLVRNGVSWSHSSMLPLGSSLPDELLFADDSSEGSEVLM
Protocol: Compounds disclosed herein were screened for their ability to inhibit […] kinase using Invitrogen's LanthaScreen™Eu Kinase Binding technology. His-tagged recombinant human MER cytoplasmic domain (5 nM) was incubated with 20 nM Alexa-Fluor® Tracer 236 (PR9078A), 2 nM biotinylated anti-His (Cat. No. M4408), and 2 nM europium-labeled Streptavidin (Cat. No. PV5899) along with test compound in a buffer consisting of 25 mM HEPES, pH 7.4, 10 mM MgCl 2, 0.01% Triton X-100, and 2% DMSO. Compounds were typically prepared in a threefold serial dilution in DMSO and added to the assay to give the appropriate final concentration. After a 60-minute incubation at 22° C., the reaction was measured using a PerkinElmer EnVision multimode plate reader via TR-FRET dual wavelength detection, and the percent of control (POC) was calculated using a ratiometric emission factor. […] The POC values are fit to a 4 parameter logistic curve and the IC50 value is point where the curve crosses 50 POC.

human MET kinase F1200I = target: T7, human MET kinase F1200I (Homo sapiens, UniProt P08581, F1200I); assay: c-Met Enzyme Assay, F1200I mutant; assay type: binding; settings: averaged IC50; F1200I 2 nM; 60-minute incubation at 22° C.
T7 construct: GST-tagged recombinant human MET kinase domain; purchased Signal Chem
T7 sequence (P08581 1078-1345 F1200I limits assumed): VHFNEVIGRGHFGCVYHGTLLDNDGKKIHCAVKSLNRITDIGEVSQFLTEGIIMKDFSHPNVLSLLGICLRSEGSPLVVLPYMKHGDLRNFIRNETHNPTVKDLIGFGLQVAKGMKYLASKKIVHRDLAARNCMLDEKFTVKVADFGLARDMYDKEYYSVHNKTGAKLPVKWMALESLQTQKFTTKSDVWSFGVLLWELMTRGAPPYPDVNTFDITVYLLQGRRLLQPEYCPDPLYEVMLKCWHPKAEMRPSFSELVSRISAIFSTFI
Protocol: as §1

human MET kinase Y1230C = target: T8, human MET kinase Y1230C (Homo sapiens, UniProt P08581, Y1230C); assay: c-Met Enzyme Assay, Y1230C mutant; assay type: binding; settings: averaged IC50; Y1230C 2 nM; 60-minute incubation at 22° C.; read-out: Y1230 C IC50
T8 construct: GST-tagged recombinant human MET kinase domain; purchased Signal Chem
T8 sequence (P08581 1078-1345 Y1230C): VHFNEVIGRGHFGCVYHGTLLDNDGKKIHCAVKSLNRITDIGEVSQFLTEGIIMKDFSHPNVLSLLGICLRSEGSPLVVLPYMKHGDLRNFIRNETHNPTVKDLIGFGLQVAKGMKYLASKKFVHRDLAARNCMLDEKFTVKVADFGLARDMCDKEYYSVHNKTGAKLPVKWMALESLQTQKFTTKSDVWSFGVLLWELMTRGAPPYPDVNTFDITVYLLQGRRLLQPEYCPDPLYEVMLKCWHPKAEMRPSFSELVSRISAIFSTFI
Protocol: as §1

SMILES: COc1cc2nccc(Oc3ccc(NC(=O)c4cn(C(C)C)cc(-c5ccc(F)cc5)c4=O)nc3)c2cc1OC [Example 1]
IC50 (human MET kinase Y1230S): 1.3 nM
IC50 [1]: 5 nM
IC50 [2]: 2.6 nM
IC50 (human MET kinase D1228H): 1.8 nM
IC50 (human MET kinase Y1230H): 2.9 nM
IC50 [3]: 3 nM
IC50 (human MET kinase F1200I): 2.5 nM
IC50 (human MET kinase Y1230C): 1.5 nM

SMILES: CCn1cc(C(=O)Nc2ccc(Oc3ccnc4cc(OC)c(OC)cc34)cn2)c(=O)c(-c2ccc(F)cc2)c1 [Example 3]
IC50 (human MET kinase Y1230S): 4.7 nM
IC50 [1]: 5 nM
IC50 [2]: 3 nM
IC50 (human MET kinase D1228H): 4.7 nM
IC50 (human MET kinase Y1230H): 6.4 nM
IC50 [3]: 3 nM
IC50 (human MET kinase F1200I): 5 nM
IC50 (human MET kinase Y1230C): 4.2 nM

SMILES: COc1cc2nccc(Oc3ccc(NC(=O)c4cn(C(C)C)cc(-c5ccc(F)cc5F)c4=O)nc3)c2cc1OC [Example 4]
IC50 (human MET kinase Y1230S): 2.2 nM
IC50 [1]: 5 nM
IC50 [2]: 1.7 nM
IC50 (human MET kinase D1228H): 3.2 nM
IC50 (human MET kinase Y1230H): 4.9 nM
IC50 [3]: 2 nM
IC50 (human MET kinase F1200I): 3 nM
IC50 (human MET kinase Y1230C): 2.8 nM

SMILES: COc1cc2nccc(Oc3ccc(NC(=O)c4cn(C(C)C)cc(-c5ccc(Cl)cc5)c4=O)nc3)c2cc1OC [Example 5, 5-(4-chlorophenyl)-N-(5-((6,7-dimethoxyquinolin-4-yl)oxy)pyridin-2-yl)-1-isopropyl-4-oxo-1,4-dihydropyridine-3-carboxamide]
IC50 (human MET kinase Y1230S): 5.4 nM
IC50 [1]: 12 nM
IC50 [2]: 6.4 nM
IC50 (human MET kinase D1228H): 9.6 nM
IC50 (human MET kinase Y1230H): 16.6 nM
IC50 [3]: 4 nM
IC50 (human MET kinase F1200I): 5.7 nM
IC50 (human MET kinase Y1230C): 8.1 nM

SMILES: COc1cc2nccc(Oc3ccc(NC(=O)c4cn(CC5CCOCC5)cc(-c5ccc(F)cc5)c4=O)nc3)c2cc1OC [Example 8, N-(5-((6,7-dimethoxyquinolin-4-yl)oxy)pyridin-2-yl)-5-(4-fluorophenyl)-4-oxo-1-((tetrahydro-2H-pyran-4-yl)methyl)-1,4-dihydropyridine-3-carboxamide]
IC50 (human MET kinase Y1230S): 4.3 nM
IC50 [1]: 15 nM
IC50 [2]: 3.9 nM
IC50 (human MET kinase D1228H): 7.2 nM
IC50 (human MET kinase Y1230H): 8.6 nM
IC50 [3]: 4 nM
IC50 (human MET kinase F1200I): 4.9 nM
IC50 (human MET kinase Y1230C): 7.4 nM

SMILES: COc1cc2nccc(Oc3ccc(NC(=O)c4cn(C(C)C)c(C(C)C)c(-c5ccc(F)cc5)c4=O)nc3)c2cc1OC [Example 38, N-(5-((6,7-dimethoxyquinolin-4yl)oxy)pyridin-2-yl)-5-(4-fluorophenyl)-1,6-diisopropyl-4-oxo-1,4-dihydropyridine-3-carboxamide]
IC50 [1]: 18 nM
IC50 [3]: 6 nM

SMILES: COc1cc2nc(C)cc(Oc3ccc(NC(=O)c4cn(C(C)C)cc(-c5ccc(F)cc5)c4=O)nc3)c2cc1OC [Example 53, N-(5-((6,7-dimethoxy-2-methylquinolin-4-yl)oxy)pyridin-2-yl)-5-(4-fluorophenyl)-1-isopropyl-4-oxo-1,4-dihydropyridine-3-carboxamide]
IC50 (human MET kinase Y1230S): 3710 nM
IC50 [1]: > 1000 nM
IC50 (human MET kinase D1228H): 4220 nM
IC50 (human MET kinase Y1230H): 1670 nM
IC50 [3]: 950 nM
IC50 (human MET kinase F1200I): 3690 nM
IC50 (human MET kinase Y1230C): 3310 nM

The next lines start with the values.

IC50 (human MET kinase Y1230S): 9.8 nM
IC50 [1]: 6 nM
IC50 [2]: 5.3 nM
IC50 (human MET kinase D1228H): 16.6 nM
IC50 (human MET kinase Y1230H): 18.2 nM
IC50 [3]: 3 nM
IC50 (human MET kinase F1200I): 6.8 nM
IC50 (human MET kinase Y1230C): 9.5 nM
SMILES: COc1cc2nccc(Oc3ccc(NC(=O)c4cn(C)cc(-c5ccc(F)cc5)c4=O)nc3)c2cc1OC [Example 2]

IC50 (human MET kinase Y1230S): 11.9 nM
IC50 [1]: 11 nM
IC50 [2]: 7.8 nM
IC50 (human MET kinase D1228H): 12.1 nM
IC50 (human MET kinase Y1230H): 24.2 nM
IC50 [3]: 5 nM
IC50 (human MET kinase F1200I): 8.1 nM
IC50 (human MET kinase Y1230C): 12.4 nM
SMILES: COc1cc2nccc(Oc3ccc(NC(=O)c4cn(C(C)C)cc(-c5ccc(F)c(F)c5)c4=O)nc3)c2cc1OC [Example 6]

IC50 (human MET kinase Y1230S): 2.1 nM
IC50 [1]: 7 nM
IC50 [2]: 2.6 nM
IC50 (human MET kinase D1228H): 2 nM
IC50 (human MET kinase Y1230H): 5.4 nM
IC50 [3]: 3 nM
IC50 (human MET kinase F1200I): 3.7 nM
IC50 (human MET kinase Y1230C): 2.9 nM
SMILES: COCCn1cc(C(=O)Nc2ccc(Oc3ccnc4cc(OC)c(OC)cc34)cn2)c(=O)c(-c2ccc(F)cc2)c1 [Example 7, N-(5((6,7-dimethoxyquinolin-4-yl)oxy)pyridin-2-yl)-5-(4-fluorophenyl)-1-(2-methoxyethyl)-4-oxo-1,4-dihydropyridine-3-carboxamide]
